Here are results for 26 molecules from PMC3423427, “Design and Synthesis of Potent N-Acylethanolamine-hydrolyzing Acid Amidase (NAAA) Inhibitor as Anti-Inflammatory Compounds” (PLoS ONE, 2012).

The IC50 is the concentration that inhibits the measured activity by half. In general, melting point refers to the temperature, or range, at which the solid turns liquid.

For one series, the system named is NAAA. The following applies: cited from earlier work.
The next series addresses T1, rat FAAH (Rattus norvegicus, UniProt P97612).
T1 construct: made in house; host or cells: HEK293 cells stably overexpressing rat FAAH (HEK293-rFAAH), a gift from D. Piomelli; crude cell extract
T1 sequence (P97612 1-579): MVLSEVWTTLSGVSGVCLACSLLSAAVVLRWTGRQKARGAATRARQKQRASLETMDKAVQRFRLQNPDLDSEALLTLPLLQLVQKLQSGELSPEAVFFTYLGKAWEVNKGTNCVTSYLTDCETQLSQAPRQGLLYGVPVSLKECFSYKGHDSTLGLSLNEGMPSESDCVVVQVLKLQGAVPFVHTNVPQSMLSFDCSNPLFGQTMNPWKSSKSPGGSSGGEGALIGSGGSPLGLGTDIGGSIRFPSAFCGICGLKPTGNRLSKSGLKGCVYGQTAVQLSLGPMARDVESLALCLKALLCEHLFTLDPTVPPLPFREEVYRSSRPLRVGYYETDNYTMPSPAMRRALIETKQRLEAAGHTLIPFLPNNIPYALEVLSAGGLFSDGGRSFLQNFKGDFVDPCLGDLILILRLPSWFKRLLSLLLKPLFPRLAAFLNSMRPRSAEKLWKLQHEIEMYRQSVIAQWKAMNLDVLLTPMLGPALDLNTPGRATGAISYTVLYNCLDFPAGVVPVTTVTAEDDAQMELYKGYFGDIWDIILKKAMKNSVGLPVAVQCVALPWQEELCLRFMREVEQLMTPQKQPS
The series is described as follows: FAAH enzymatic assay (recombinant rFAAH protein, LC/MS). Type of series: biochemical. The following applies: for IC50: IC50 ± S.E.M., triplicate, 25 µM anandamide, pH 8.0.

The next series addresses T2, rat NAAA (Rattus norvegicus, UniProt Q5KTC7).
T2 construct: made in house; host or cells: HEK293 cells stably overexpressing rat NAAA (HEK293-rNAAA), a gift from D. Piomelli; crude 800 x g supernatant of sonicated cells
T2 sequence (Q5KTC7 34-362): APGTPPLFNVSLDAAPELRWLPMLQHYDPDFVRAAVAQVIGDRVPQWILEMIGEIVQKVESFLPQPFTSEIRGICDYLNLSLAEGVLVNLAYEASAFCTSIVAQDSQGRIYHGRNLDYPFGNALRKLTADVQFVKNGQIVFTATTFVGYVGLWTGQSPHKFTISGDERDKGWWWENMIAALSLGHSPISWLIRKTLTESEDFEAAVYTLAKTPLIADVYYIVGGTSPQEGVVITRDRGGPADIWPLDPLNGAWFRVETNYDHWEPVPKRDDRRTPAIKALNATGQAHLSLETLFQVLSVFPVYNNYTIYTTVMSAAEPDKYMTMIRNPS
The series can be described thus: NAAA enzymatic assay (recombinant rNAAA protein, LC/MS).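 As to all read-outs here: reaction product measured by LC/MS using positive APCI ionization with MRM monitoring, quantified from chromatographic peak areas.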 Type of series: biochemical. As to conditions: for IC50: IC50 ± S.E.M., triplicate, 25 µM heptadecenoylethanolamide, pH 5.0.

Experimental for rat FAAH: (§1) HEK293-rNAAA or HEK293-rFAAH cells were harvested, washed with PBS, sonicated in 20 mM Tris-HCl (pH 7.5) containing 0.32 M sucrose, and centrifuged at 800 × g for 15 min at 4°C. The supernatants were collected and protein concentrations were measured by BCA protein assay kit (Pierce, Shanghai, China). […] The reactions were terminated by adding 0.2 mL methanol containing 1 nmol heptadecanoic acid and analyzed in LC/MS.
(§2) We use an Agilent 1200-LC system coupled to a 3200Q TRAP-MS detector equipped with an ESI interface (Agilent Technologies, Shanghai, China). […] The column temperature was set at 40°C. […] Mass spectrometer (MS) detection was ionized by positive-ion atmospheric pressure chemical ionization mode (APCI^+) and monitored in MRM mode. […] Quantifications were calculated at chromatographic peak areas by using Analyst® version 1.4.1. software (Applied Biosystems).
Experimental for rat NAAA: as §1, §2

For the molecule `O=C(CCc1ccccc1)N[C@H]1COC1=O` [(S)-OOPP, (S)-N-(2-oxo-3-oxetanyl)-3-phenylpropionamide], in the series with NAAA, the “potency as NAAA inhibitor relative to CCP” value is recorded as “about 10 fold”.
With `CCCCCCCCCCCCCCCNC(=O)C1CCCCC1` [CCP, N-Cyclohexanecarbonylpentadecylamine], the “mode of NAAA inhibition” value with NAAA was “reversible and non-competitive”.
For the molecule `CCCCCCCCCCCCCCCC(=O)N1CCCC1` [Compound 1, 1–Pentadecanyl–carbonyl pyrrolidine], the figures for the IC50 on rat FAAH and at rat NAAA were 21.8 ± 4.45 µM and 25 ± 5.7 µM, respectively.
With `CCCCCCCCCCCCCCCC(=O)NC1CCCC1` [Compound 2, N–Cyclopentylpalmitamide], on rat FAAH, the “inhibition ability on FAAH activity (in words)” value was “complete loss of the inhibition ability” and the IC50 is over 100 µM. Also, at rat NAAA, the “inhibition ability on NAAA activity (in words)” value is listed as “complete loss of the inhibition ability” and the IC50 is over 100 µM.
Consider `CCCCCCCCCCCCCCCC(=O)N1CCCCC1` [Compound 3, Pentadecanyl–carbonyl piperidine], for which, on rat FAAH, the “inhibition ability on FAAH activity (in words)” value was “complete loss of the inhibition ability” and the IC50 is over 100 µM. For the same molecule, at rat NAAA, the “inhibition ability on NAAA activity (in words)” value was “complete loss of the inhibition ability” and the IC50 was over 100 µM.
With `CCCCCCCCCCCCCCCC(=O)OC1CCCC1` [Compound 4, Cyclopentyl palmitate], at rat FAAH, the “inhibition ability on FAAH activity (in words)” value is reported as “complete loss of the inhibition ability” and the IC50 is over 100 µM. Further, on rat NAAA, the “inhibition ability on NAAA activity (in words)” value is listed as “complete loss of the inhibition ability” and the IC50 was over 100 µM.
As for `CCCCCCCCCCCCCCCC(=O)OC1CCOC1` (stereo not drawn) [Compound 5, Tetrahydrofuran–3–yl palmitate], on rat FAAH, the “inhibition ability on FAAH activity (in words)” value is on record as “complete loss of the inhibition ability” and the IC50 is over 100 µM. Besides, on rat NAAA, the “inhibition ability on NAAA activity (in words)” value is “complete loss of the inhibition ability” and the IC50 was over 100 µM.
In turn, `CCCCCCCCCCCCCCCC(=O)n1cccc1` [Compound 6, 1–Pentadecanyl–carbonyl pyrrole] registered a melting point of 57.9 to 60.2 °C. On rat FAAH, the “inhibition ability on FAAH activity (in words)” value is recorded as “complete loss of the inhibition ability” and the IC50 is over 100 µM. Moreover, at rat NAAA, the “inhibition ability on NAAA activity (in words)” value is reported as “complete loss of the inhibition ability” and the IC50 was over 100 µM.
Consider `O=C(Cc1ccccc1)N1CCCC1` [Compound 7, 1–Benzyl–carbonyl pyrrolidine], for which the IC50 on rat FAAH and at rat NAAA was over 100 µM throughout.
Turning to `O=C(CCc1ccccc1)N1CCCC1` [Compound 8, 1–(2–Phenylethyl)–carbonyl pyrrolidine], the IC50 on rat FAAH and at rat NAAA was over 100 µM throughout.
As to `O=C(CCCc1ccccc1)N1CCCC1` [Compound 9, 1–(3–Phenylpropanyl)–carbonyl pyrrolidine], the IC50 at rat FAAH and at rat NAAA was over 100 µM each time.
For the molecule `O=C(CCCCc1ccccc1)N1CCCC1` [Compound 10, 1–(4–Phenylbutanyl)–carbonyl pyrrolidine], the results for the IC50 at rat FAAH and on rat NAAA were over 100 µM and 38.2 ± 3.79 µM, respectively.
On the same counts, the results for `O=C(CCCCCc1ccccc1)N1CCCC1` [Compound 11, 1–(5–Phenylpentanyl)–carbonyl pyrrolidine] are over 100 µM and 34.6 ± 4.82 µM.
On the same counts, the results for `O=C(CCCCCCc1ccccc1)N1CCCC1` [Compound 12, 1–(6–Phenylhexanyl)–carbonyl pyrrolidine] are over 100 µM and 12.9 ± 3.47 µM.
On the same counts, the results for `O=C(CCCCCCCc1ccccc1)N1CCCC1` [Compound 13, 1–(7–Phenylheptanyl)–carbonyl pyrrolidine] are over 100 µM and 37.9 ± 4.58 µM.
On to `O=C(c1ccc(-c2ccccc2)cc1)N1CCCC1` [Compound 14, 1–(Biphenyl–4–ylcarbonyl)pyrrolidine], for which the IC50 on rat FAAH and on rat NAAA was over 100 µM each time.
`O=C(Cc1ccc(-c2ccccc2)cc1)N1CCCC1` [Compound 15, 1–(4–Phenylbenzyl)–carbonyl pyrrolidine]: the IC50 at rat FAAH and on rat NAAA was over 100 µM throughout.
Regarding `O=C(Cc1ccc(OCc2ccccc2)cc1)N1CCCC1` [Compound 17, 1–(4–Benzyloxy)benzyl–carbonyl pyrrolidine], the IC50 at rat FAAH and at rat NAAA was over 100 µM in each case.
In the case of `O=C(CCc1ccc(OCc2ccccc2)cc1)N1CCCC1` [Compound 18, 1–(2–(4–Benzyloxy)phenyl)ethyl–carbonyl pyrrolidine], the IC50 on rat FAAH and on rat NAAA was over 100 µM in each case.
In the case of `O=C(c1ccc2ccccc2c1)N1CCCC1` [Compound 19, 1–(2–Naphthalenyl)carbonyl pyrrolidine], the IC50 at rat FAAH and at rat NAAA was over 100 µM each time.
With `O=C(Cc1ccc2ccccc2c1)N1CCCC1` [Compound 20, 1–(2–Naphthalenyl)acetyl pyrrolidine], the IC50 on rat FAAH and at rat NAAA was over 100 µM throughout.
In the case of `O=C(NCc1ccc(-c2ccccc2)cc1)N1CCCC1` [Compound 21, N–(Biphenyl–4–ylmethyl)pyrrolidinyl–1–carboxamide], at rat FAAH, the “inhibition ability on FAAH activity (in words)” value is “full loss of inhibition” and the IC50 is over 100 µM. Further, at rat NAAA, the “inhibition ability on NAAA activity (in words)” value is reported as “full loss of inhibition” and the IC50 is over 100 µM.
As for `O=C(OCc1ccc(-c2ccccc2)cc1)N1CCCC1` [Compound 22, Biphenyl–4–ylmethyl pyrrolidinyl–1–carboxylate], at rat FAAH, the “inhibition ability on FAAH activity (in words)” value was “full loss of inhibition” and the half-inhibitory concentration (IC50) was over 100 µM. At rat NAAA, the “inhibition ability on NAAA activity (in words)” value was “full loss of inhibition” and the IC50 was over 100 µM.
`O=C(NCc1ccc(-c2ccccc2)cc1)C1CCCC1` [Compound 23, 4–Phenylbenzyl cyclopentanyl carboxamide]: the melting point fell in the range of 151.8 to 154.6 °C. At rat FAAH, the “inhibition ability on FAAH activity (in words)” value was “full loss of inhibition” and the IC50 is over 100 µM. In addition, on rat NAAA, the “inhibition ability on NAAA activity (in words)” value is reported as “full loss of inhibition” and the IC50 is over 100 µM.
With `O=C(OCc1ccc(-c2ccccc2)cc1)C1CCCC1` [Compound 24, 4–Phenylbenzyl cyclopentanyl carboxylate], on rat FAAH, the “inhibition ability on FAAH activity (in words)” value is reported as “full loss of inhibition” and the IC50 is over 100 µM. At rat NAAA, the “inhibition ability on NAAA activity (in words)” value was “full loss of inhibition” and the IC50 is over 100 µM.
As for `c1ccc(-c2ccc(CCCN3CCCC3)cc2)cc1` [Compound 25, 1–(3–Biphenyl–4–ylpropyl)pyrrolidine], on rat FAAH, the “inhibition ability on FAAH activity (in words)” value is recorded as “full loss of inhibition” and the IC50 is over 100 µM. On rat NAAA, the “inhibition ability on NAAA activity (in words)” value was “full loss of inhibition” and the IC50 is over 100 µM.
